Data as given in patent US20260200849A1, “CATIONIC LIPIDS AND PREPARATION METHOD THEREOF” (RiboX Therapeutics HK Limited, priority 2024, published 2026).
Several values for one entry are separate records, joined by “and”; a condition that tells them apart may be missing. Identical values can stand only once.

How the values were obtained:
Hep G2 cells [1] = test: In vitro toxicity: Hep G2 cell viability by CellTiter-Glo; assay type: cell-based; settings: 72 hours post transfection, cell only = 100%
Description: 2E5 Hep G2 cells were transfected with 1 μg/mL RNA-LNPs. At 72 hours post transfection, cell viability (2-well repeat) was determined with the CellTiter-Glo® reagent kit, according to the kit protocol, measured by a luminometer. Cell only as control (100%).
The cell viability was calculated according to the following formula: […]

injection site skin = test: In vivo tolerability after intradermal injection: H&E staining of injection site skin; parameters: species or system C57BL/6J mice; key to Infiltration, mononuclear cells, dermis/subcutaneous, focal, Grade / Edema, subcutaneous, focal, Grade / Erosion, focal, Grade / Skin, Grade: 1==minimal; 2=mild; 3=moderate; 4=marked; 5=severe; N=Normal; NA=Not applicable; —=No data; settings: intradermal 0.15 mg/kg, 72 h, Formulation 001, RNA 331; for Edema, subcutaneous, focal, Grade / Erosion, focal, Grade / Infiltration, mononuclear cells, dermis/subcutaneous, focal, Grade: per animal; for Total score: sum of lesion grades of the group (N=3)
Description: 7-8 week old, female C57BL/6J mice (N=3) were injected with 0.15 mg*kg−1 of RNA-LNIPs encoding for firefly-luciferase by intradermal injection. At 72-hours post injection, injection site skin from each animal was collected in 10% formalin, for H&E staining. PBS group (N=2) as control. (Note: 1==minimal, 2=mild, 3=moderate, 4=marked, 5=severe; N=Normal; NA=Not applicable; —=No data)

[2] = LNP size and polydispersity index (PDI) by dynamic light scattering (Zetasizer); assay type: physicochemical; settings: for Size (nm): Formulation No. 010 (Ionizable lipid:DSPC:cholesterol:DSPE-PEG2000 = 38:30:30:2, N/P 6), RNA No. 331
Description: (§1) The LNP size and polydispersity index (PDI), determined by dynamic light scattering (DLS), and zeta potential were measured by a Zetasizer machine (Malvern). RNA concentration and encapsulation efficacy (EE %) were analyzed by the Quant-IT Ribogreen kit by calculating the percentage encapsulation at 100%—(RNA-LNPs/RNA-LNPs with Triton X-100).

Hep G2 cells [3] = test: In vitro expression: luciferase activity in Hep G2 cells transfected with RNA-LNPs; assay type: cell-based; settings: 100 ng/mL RNA-LNPs, 72 hours post transfection
Description: 2E5 Hep G2 cells were transfected with 100 ng/mL of RNA-LNPs encoding for firefly-luciferase. At 72 hours post transfection, the cells were washed and lysed. The luciferase expression (2-well repeat) was determined in the cell lysates with the luciferase assay reagent kit (Promega), according to the kit protocol, luciferase activity was measured by a luminometer.

C57BL/6J mice = test: In vivo expression by ID, whole-body/injection site skin/lymph node luminescence; settings: intradermal 0.15 mg/kg, 72 h post injection, female C57BL/6J mice N=3, Formulation 001, RNA 331
Description: 7-8 week old, female C57BL/6J mice (N=3) were injected with 0.15 mg*kg−1 of RNA-LNPs encoding for firefly-luciferase by intradermal injection. At 72-hours post injection, animals were intraperitoneally injected with 15 mg/mi of Luciferin substrate and whole-body/injection site skin/lymph node luminescence were determined by a bioluminescent in vivo imaging system (IVIS).

Balb/c mice = test: In vivo expression by IV, 0.05 mg/kg luciferase RNA-LNPs, IVIS luminescence; settings: Formulation No. 010, RNA No. 331, female Balb/c mice, 0.05 mg*kg−1 intravenous; for Whole body at 24 h (p/s) (Mean): 24 hours post injection; for Whole body at 72 h (p/s) (Mean): 72 hours post injection
Summary of the method: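 IVIS bioluminescence was read after IP luciferin (15 mg/ml): whole-body at 24 and 72 h, or whole-body/liver/spleen at 24 h. Dosing was a single IV injection of 0.05 mg*kg−1 RNA-LNPs encoding firefly luciferase into 7-8 week old female Balb/c mice, N=3.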

[4] = RNA encapsulation efficacy (EE %) by Quant-IT Ribogreen kit; assay type: physicochemical; settings: LNP
Description: as §1

hEPO = test: In vivo expression by IM: serum hEPO concentration by ELISA; settings: IM 0.075 mg/kg, male C57BL/6J mice N=3, Formulation 001, RNA 019
Description: Circular RNA payloads were suspended in 25 mM Acetate Buffer (pH 4.5). To form LNPs, three volumes of human erythropoietin (hEPO) encoding cirRNA (SEQ ID NO:2), were mixed with one volume of lipids in ethanol solution by microfluidic mixing with the INano™ L+ (Micro& Nano) at a flow rate of 12 ml/min. The molar ratio of ionizable lipid to ribonucleotide was 6. After encapsulation, the particles were dialyzed twice against PBS. The LNP formulation was concentrated to targeted RNA concentration by Amicon® Ultra Centrifugal Filter (100 kDa MWCO) and filtered by a 0.65/0.22 um sterile filter.
6-8 week old, male C57BL/6J mice (N=3) were injected with 0.075 mg*kg−1 of RNA-LNPs encoding for hEPO by intramuscular injection. At 2-/6-/24-/48-/72 h-hours post injection, about 80 μL blood will be harvested and immediately added to the procoagulant containing tube. Stand for 30 min at room temperature and then centrifuged at 2500 g×10 min to obtain serum. About 30 μL serum samples will be aliquoted for hEPO concentration detection by ELISA kit (STEMCELL Technologies).

[5] = 1 μg/mL RNA-LNPs, Formulation 001, RNA 331
[6] = Formulation No. 010, RNA No. 331, 1 μg/mL RNA-LNPs
[7] = Formulation No. 001, RNA No. 019 (hEPO)
[8] = Formulation No. 001, RNA No. 331
[9] = Formulation No. 010, RNA No. 331
[10] = Formulation No. 010, RNA No. 331 (firefly-luciferase)

Row | Compound | In vitro cell viability (%) (Mean) (Hep G2 cells [1]; [5]) | In vitro cell viability (%) (Mean) (Hep G2 cells [1]; [6]) | Edema, subcutaneous, focal, Grade (injection site skin) | Erosion, focal, Grade (injection site skin) | Infiltration, mononuclear cells, dermis/subcutaneous, focal, Grade (injection site skin) | Total score (injection site skin) | PDI [2, 7] | PDI [2, 8] | Size [2, 8] [nm] | Size (nm) [2] [nm] | PDI [2, 9] | In vitro Expression (Mean) (Hep G2 cells [3]; Formulation 001, RNA 331) | In vitro Expression (Mean) (Hep G2 cells [3]; [10]) | Injection site Skin (p/s) (C57BL/6J mice) | Lymph node (p/s) (C57BL/6J mice) | Whole body (p/s) (C57BL/6J mice) | Whole body at 24 h (p/s) (Mean) (Balb/c mice) | Whole body at 72 h (p/s) (Mean) (Balb/c mice) | EE (%) [4, 8] [%] | EE (%) [4, 9] [%] | further results
1 | CCCCC/C=C\C/C=C\CCCCCCCC(=O)NC(COC(=O)NCCN1CCCCCC1)C(=O)OCCCCCCCC(=O)OC(CCCCCCCC)CCCCCCCC (centres unmarked) [Lipid 550] | 67.09 | 87.47 | 1 | 1 and — (2×) | 1 | 7 | 0.04 | 0.15 | 72.66 | 67.81 | 0.13 | 1.89E+05 | 5.74E+05 | 1.33E+07 | 2.06E+06 | 3.09E+07 | 2.36E+08 | 4.96E+07 | 94.50 | 94.88 | Size [2, 7]: 66.58 nm; EE (%) [4, 7]: 92.20%; hEPO conc. (ng/mL) at 2 h (hEPO): 1.56 ng/mL; hEPO conc. (ng/mL) at 6 h (hEPO): 6.19 ng/mL; hEPO conc. (ng/mL) at 24 h (hEPO): 9.69 ng/mL; hEPO conc. (ng/mL) at 48 h (hEPO): 2.38 ng/mL; hEPO conc. (ng/mL) at 72 h (hEPO): 0.67 ng/mL
2 | CCCCC/C=C\C/C=C\CCCCCCCC(=O)N[C@@H](COC(=O)NCCN1CCCCC1)C(=O)OCCCCCCCC(=O)OC(CCCCCCCC)CCCCCCCC [Lipid 601] | 81.18 | 98.14 | 1 | — | 1 | 6 | 0.04 | 0.09 | 80.16 | 62.33 | 0.08 | 9.94E+05 | 6.24E+05 | 9.69E+06 | 1.89E+06 | 5.92E+07 | 3.82E+08 | 8.02E+07 | 95.30 | 95.98 | Size [2, 7]: 73.40 nm; EE (%) [4, 7]: 90.47%; hEPO conc. (ng/mL) at 2 h (hEPO): 1.12 ng/mL; hEPO conc. (ng/mL) at 6 h (hEPO): 7.35 ng/mL; hEPO conc. (ng/mL) at 24 h (hEPO): 12.74 ng/mL; hEPO conc. (ng/mL) at 48 h (hEPO): 3.29 ng/mL; hEPO conc. (ng/mL) at 72 h (hEPO): 1.06 ng/mL
3 | CCCCC/C=C\C/C=C\CCCCCCCC(=O)N[C@@H](COC(=O)NCCN1CCCCCC1)C(=O)OCCCCCCCC(=O)OC(CCCCCCCC)CCCCCCCC [Lipid 602] | 82.68 | 84.17 | 1 (2×) and 2 | — | 1 | 7 | 0.04 | 0.08 | 76.34 | 64.73 | 0.16 | 5.82E+05 | 6.30E+05 | 3.02E+07 | 3.01E+06 | 1.40E+08 | 2.66E+08 | 1.24E+08 | 97.94 | 97.13 | Size [2, 7]: 67.47 nm; EE (%) [4, 7]: 95.79%; hEPO conc. (ng/mL) at 2 h (hEPO): 1.02 ng/mL; hEPO conc. (ng/mL) at 6 h (hEPO): 5.02 ng/mL; hEPO conc. (ng/mL) at 24 h (hEPO): 7.65 ng/mL; hEPO conc. (ng/mL) at 48 h (hEPO): 2.44 ng/mL; hEPO conc. (ng/mL) at 72 h (hEPO): 0.76 ng/mL
4 | CCCCC/C=C\C/C=C\CCCCCCCC(=O)NC(COC(=O)NCCN1CCCCCC1)C(=O)OCCCCCC(=O)OCC(CCCCCCCC)CCCCCCCCCC (centres unmarked) [Lipid 729] | 65.07 | 80.55 | 1 (2×) and — | — | 1 | 5 |  | 0.08 | 71.29 | 57.90 | 0.10 | 1.64E+05 | 3.44E+05 | 1.33E+07 | 1.42E+06 | 6.76E+07 | 1.86E+08 | 4.99E+07 | 95.62 | 95.94 | 
5 | CCCCC/C=C\C/C=C\CCCCCCCC(=O)N[C@H](COC(=O)NCCN1CCCCCC1)C(=O)OCCCCCC(=O)OC(CCCCCCCC)CCCCCCCC [Lipid 730] | 75.29 | 98.64 | 1 | — | 1 | 6 |  | 0.05 | 76.53 | 59.50 | 0.09 | 5.98E+05 | 7.72E+05 | 1.63E+07 | 3.33E+06 | 2.81E+07 | 2.24E+08 | 8.49E+07 | 97.08 | 96.20 | 
